Assay results taken from ChEMBL document CHEMBL1201862, “PubChem BioAssay data set” (2004).
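Each compound was tested at five concentrations against cells in 96-well plates for 48 hours. The concentration for 50% growth inhibition is given as GI50.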 Activity calls are given as the source filed them. Rule as the data show it: active = GI50 up to about 1.1 µM and inactive = higher.

Experiments:
Test in all cases: NCI-60 cell line screen, 48 h
UO-31 = system: UO-31
SNB-19 = system: SNB-19
IGROV-1 = system: IGROV-1
U-251 = system: U-251
A549 = system: A549
HCC 2998 = system: HCC 2998
SK-MEL-2 = system: SK-MEL-2
SNB-75 = system: SNB-75
HCT-15 = system: HCT-15
OVCAR-5 = system: OVCAR-5
COLO 205 = system: COLO 205
MDA-MB-435 = system: MDA-MB-435
SK-MEL-28 = system: SK-MEL-28
DU-145 = system: DU-145
Malme-3M = system: Malme-3M
786-0 = system: 786-0
SF-295 = system: SF-295
LOX IMVI = system: LOX IMVI
OVCAR-8 = system: OVCAR-8
RXF 393 = system: RXF 393

Structure (SMILES): CCOC(=O)c1nc2ccccc2nc1Nc1cc(OC)c(OC)c(OC)c1
- GI50 (UO-31): > 100 µM (inactive)
- GI50 (SNB-19): > 100 µM (inactive)
- GI50 (IGROV-1): > 100 µM (inactive)
- GI50 (U-251): > 100 µM (inactive)
- GI50 (A549): > 100 µM (inactive)
- GI50 (HCC 2998): > 100 µM (inactive)
- GI50 (SK-MEL-2): > 100 µM (inactive)
- GI50 (SNB-75): 43.6 µM (inactive)
- GI50 (HCT-15): > 100 µM
- GI50 (OVCAR-5): > 100 µM (inactive)
- GI50 (COLO 205): > 100 µM (inactive)
- GI50 (MDA-MB-435): > 100 µM (inactive)
- GI50 (SK-MEL-28): > 100 µM (inactive)
- GI50 (DU-145): > 100 µM (inactive)
- GI50 (Malme-3M): > 100 µM (inactive)
- GI50 (786-0): > 100 µM (inactive)
- GI50 (SF-295): > 100 µM (inactive)

Structure (SMILES): C=C(C)C1CC=C(C)C(=O)C1 (centres undefined) [CARVONE]
- GI50 (UO-31): > 100 µM (inactive)
- GI50 (SNB-19): > 100 µM (inactive)
- GI50 (IGROV-1): > 100 µM (inactive)
- GI50 (U-251): > 100 µM (inactive)
- GI50 (A549): > 100 µM (inactive)
- GI50 (HCC 2998): > 100 µM (inactive)
- GI50 (SK-MEL-2): > 100 µM (inactive)
- GI50 (SNB-75): > 100 µM (inactive)
- GI50 (LOX IMVI): > 100 µM (inactive)
- GI50 (HCT-15): > 100 µM
- GI50 (OVCAR-5): > 100 µM (inactive)
- GI50 (COLO 205): > 100 µM (inactive)
- GI50 (MDA-MB-435): > 100 µM (inactive)
- GI50 (OVCAR-8): > 100 µM (inactive)
- GI50 (SK-MEL-28): > 100 µM (inactive)
- GI50 (DU-145): > 100 µM (inactive)
- GI50 (Malme-3M): > 100 µM (inactive)
- GI50 (786-0): > 100 µM (inactive)
- GI50 (SF-295): > 100 µM (inactive)

Structure (SMILES): O=C(/C=C/c1ccc(Cl)cc1)c1cccs1
- GI50 (UO-31): 18 µM (inactive)
- GI50 (SNB-19): 18.2 µM (inactive)
- GI50 (IGROV-1): 29.9 µM (inactive)
- GI50 (U-251): 16 µM (inactive)
- GI50 (A549): 29.1 µM (inactive)
- GI50 (HCC 2998): 18.6 µM (inactive)
- GI50 (SK-MEL-2): 24.5 µM (inactive)
- GI50 (SNB-75): 22.5 µM (inactive)
- GI50 (LOX IMVI): 11.4 µM (inactive)
- GI50 (HCT-15): 17.5 µM
- GI50 (COLO 205): 19.3 µM (inactive)
- GI50 (MDA-MB-435): 13 µM (inactive)
- GI50 (OVCAR-8): 21.7 µM (inactive)
- GI50 (SK-MEL-28): 26.2 µM (inactive)
- GI50 (DU-145): 40.6 µM (inactive)
- GI50 (Malme-3M): 16.6 µM (inactive)
- GI50 (786-0): 15 µM (inactive)
- GI50 (SF-295): 20 µM (inactive)

Structure (SMILES): CC(C)(C)c1ccc2c(c1)S(=O)(=O)Nc1cccc(c1)NS(=O)(=O)c1cc(C(C)(C)C)ccc1OCCOCCO2
- GI50 (UO-31): > 100 µM (inactive)
- GI50 (SNB-19): > 100 µM (inactive)
- GI50 (IGROV-1): > 100 µM (inactive)
- GI50 (U-251): > 100 µM (inactive)
- GI50 (A549): > 100 µM (inactive)
- GI50 (HCC 2998): > 100 µM (inactive)
- GI50 (SK-MEL-2): > 100 µM (inactive)
- GI50 (SNB-75): > 100 µM (inactive)
- GI50 (RXF 393): 6.49 µM (inactive)
- GI50 (LOX IMVI): > 100 µM (inactive)
- GI50 (HCT-15): > 100 µM
- GI50 (OVCAR-5): > 100 µM (inactive)
- GI50 (COLO 205): > 100 µM (inactive)
- GI50 (OVCAR-8): > 100 µM (inactive)
- GI50 (SK-MEL-28): > 100 µM (inactive)
- GI50 (Malme-3M): > 100 µM (inactive)
- GI50 (786-0): > 100 µM (inactive)
- GI50 (SF-295): > 100 µM (inactive)

Structure (SMILES): COc1ccc(N2C(=O)/C(=C/c3ccc(N(CCC#N)CCC#N)cc3)N=C2c2ccccc2)c(OC)c1
- GI50 (UO-31): > 100 µM (inactive)
- GI50 (SNB-19): > 100 µM (inactive)
- GI50 (IGROV-1): > 100 µM (inactive)
- GI50 (U-251): 48.2 µM (inactive)
- GI50 (HCC 2998): > 100 µM (inactive)
- GI50 (SNB-75): 89.5 µM (inactive)
- GI50 (HCT-15): 40.2 µM
- GI50 (OVCAR-5): > 100 µM (inactive)
- GI50 (COLO 205): > 100 µM (inactive)
- GI50 (MDA-MB-435): > 100 µM (inactive)
- GI50 (OVCAR-8): 28.5 µM (inactive)
- GI50 (SK-MEL-28): > 100 µM (inactive)
- GI50 (DU-145): > 100 µM (inactive)
- GI50 (Malme-3M): > 100 µM (inactive)
- GI50 (786-0): > 100 µM (inactive)
- GI50 (SF-295): > 100 µM (inactive)

Structure (SMILES): Cn1c2ccccc2c(=O)c2ccc(Cl)cc21
- GI50 (SNB-19): 0.0676 µM (active)
- GI50 (IGROV-1): > 10 µM (inactive)
- GI50 (A549): 6.01 µM (inactive)
- GI50 (HCC 2998): > 10 µM (inactive)
- GI50 (SK-MEL-2): > 10 µM (inactive)
- GI50 (SNB-75): 8.97 µM (inactive)
- GI50 (RXF 393): > 10 µM (inactive)
- GI50 (LOX IMVI): > 10 µM (inactive)
- GI50 (HCT-15): > 10 µM
- GI50 (COLO 205): > 10 µM (inactive)
- GI50 (MDA-MB-435): > 10 µM (inactive)
- GI50 (OVCAR-8): > 10 µM (inactive)
- GI50 (SK-MEL-28): > 10 µM (inactive)
- GI50 (Malme-3M): > 10 µM (inactive)
- GI50 (786-0): > 10 µM (inactive)
- GI50 (SF-295): > 10 µM (inactive)

Structure (SMILES): O=C(Cn1c(=O)oc2ccc(C(=O)c3cccc(Cl)c3)cc21)c1ccccc1
- GI50 (UO-31): 99.8 µM (inactive)
- GI50 (SNB-19): > 10 µM (inactive)
- GI50 (IGROV-1): > 100 µM (inactive)
- GI50 (U-251): > 100 µM (inactive)
- GI50 (A549): 27.2 µM (inactive)
- GI50 (HCC 2998): 20.1 µM (inactive)
- GI50 (SK-MEL-2): 67.3 µM (inactive)
- GI50 (SNB-75): 25.1 µM (inactive)
- GI50 (LOX IMVI): > 100 µM (inactive)
- GI50 (HCT-15): 41.2 µM
- GI50 (OVCAR-5): > 100 µM (inactive)
- GI50 (COLO 205): 33.9 µM (inactive)
- GI50 (MDA-MB-435): > 100 µM (inactive)
- GI50 (OVCAR-8): > 100 µM (inactive)
- GI50 (SK-MEL-28): > 100 µM (inactive)
- GI50 (DU-145): > 100 µM (inactive)
- GI50 (Malme-3M): 63 µM (inactive)
- GI50 (786-0): > 10 µM (inactive)
- GI50 (SF-295): 44.6 µM (inactive)

Structure (SMILES): O=C1CCC2(c3ccc(Cl)cc3)Nc3ccncc3N12 (centres undefined)
- GI50 (UO-31): > 10 µM (inactive)
- GI50 (SNB-19): > 10 µM (inactive)
- GI50 (IGROV-1): > 10 µM (inactive)
- GI50 (U-251): > 10 µM (inactive)
- GI50 (A549): > 10 µM (inactive)
- GI50 (SK-MEL-2): > 10 µM (inactive)
- GI50 (SNB-75): > 10 µM (inactive)
- GI50 (LOX IMVI): > 10 µM (inactive)
- GI50 (HCT-15): > 10 µM
- GI50 (OVCAR-5): > 10 µM (inactive)
- GI50 (MDA-MB-435): > 10 µM (inactive)
- GI50 (OVCAR-8): > 10 µM (inactive)
- GI50 (DU-145): 4.4 µM (inactive)
- GI50 (Malme-3M): > 10 µM (inactive)
- GI50 (786-0): > 10 µM (inactive)
- GI50 (SF-295): > 10 µM (inactive)
